Results as given in patent US10590086B2, “Pharmaceutical compound” (IOmet Pharma Ltd., priority 2014, dated 2020).

Legend:
IDO [1] = target: T1, IDO (Homo sapiens, UniProt P14902); assay: SKOV3 kynurenine cell-based assay (IDO induced by IFN-γ); parameters: IDO expression was induced in the SKOV3 cells by the addition of 500 ng/ml IFN-γ; endogenous in cells; host or cells: SKOV3 (human ovarian adenocarcinoma), induced with IFN-γ; conditions: 48 hours, read-out: SKOV3 Kynurenine cell based assay pIC50 (converted)
T1 sequence (P14902 whole entry): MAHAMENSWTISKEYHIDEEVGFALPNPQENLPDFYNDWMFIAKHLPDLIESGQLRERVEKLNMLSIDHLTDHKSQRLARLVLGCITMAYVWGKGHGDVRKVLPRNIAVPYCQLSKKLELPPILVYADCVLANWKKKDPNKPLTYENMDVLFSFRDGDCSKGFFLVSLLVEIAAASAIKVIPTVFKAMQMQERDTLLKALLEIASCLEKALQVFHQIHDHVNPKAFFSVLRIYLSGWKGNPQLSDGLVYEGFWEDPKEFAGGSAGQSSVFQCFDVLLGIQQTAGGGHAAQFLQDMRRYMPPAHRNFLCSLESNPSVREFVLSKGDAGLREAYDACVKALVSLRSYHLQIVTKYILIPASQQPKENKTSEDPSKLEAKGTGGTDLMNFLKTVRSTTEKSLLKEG
In short: (§1)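 First, A172 or SKOV3 cells were seeded in phenol red-free RPMI, 10% FCS, 2 mM L-glutamine, 500 μM L-tryptophan; SKOV3 received 500 ng/ml IFN-γ for IDO induction. Next came compound exposure, 48 hours, 37° C. Finally, cells were spun out, supernatant treated with Erhlich's reagent, absorbance read at 490 nm.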

TDO [2] = target: T2, TDO (Homo sapiens, UniProt P48775); assay: A172 kynurenine cell-based assay; parameters: This assay utilised cancer cells which expressed either TDO or IDO; endogenous in cells; host or cells: A172 (human glioblastoma); conditions: A172 human glioblastoma cells, 48 hours, read-out: A172 Kynurenine cell based assay pIC50 (converted)
T2 sequence (P48775 whole entry): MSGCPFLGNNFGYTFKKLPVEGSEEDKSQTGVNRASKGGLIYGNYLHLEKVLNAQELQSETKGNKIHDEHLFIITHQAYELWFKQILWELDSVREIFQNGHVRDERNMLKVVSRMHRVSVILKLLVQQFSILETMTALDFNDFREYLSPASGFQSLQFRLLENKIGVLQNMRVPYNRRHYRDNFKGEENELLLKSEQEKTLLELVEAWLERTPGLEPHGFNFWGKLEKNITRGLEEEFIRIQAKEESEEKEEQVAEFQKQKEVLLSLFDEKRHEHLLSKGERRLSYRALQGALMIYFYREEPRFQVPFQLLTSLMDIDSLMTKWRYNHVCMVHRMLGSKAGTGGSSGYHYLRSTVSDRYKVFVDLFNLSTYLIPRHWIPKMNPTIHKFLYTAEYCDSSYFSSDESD
In short: as §1

TDO [3] = target: T2, TDO; assay: hTDO biochemical coupled assay; conditions: 330 μM L-tryptophan, read-out: hTDO biochemical assay pIC50 (converted)
IDO [4] = target: T1, IDO; assay: hIDO biochemical coupled assay; conditions: 45 μM L-tryptophan, read-out: hIDO biochemical assay pIC50 (converted)
[5] = SKOV3 human ovarian adenocarcinoma cells, 500 ng/ml IFN-γ, 500 μM L-tryptophan
[6] = SKOV3 cells, IDO induced by 500 ng/ml IFN-γ

Row | Structure (SMILES) | IC50 (IDO [1]; [5]) [µM] | IC50 (TDO [2]; 500 μM L-tryptophan) [µM] | IC50 (TDO [3]; 17 minutes, room temperature) [µM] | IC50 (IDO [4]; 17 minutes, room temperature) [µM] | IC50 (IDO [1]; [6]) [µM] | IC50 (TDO [2]) [µM] | IC50 (TDO [3]) [µM] | IC50 (IDO [4]) [µM]
1 | OC(CC1CCOCC1)c1cc(Cl)cc2[nH]ncc12 (centres unmarked) [Compound 289] | 32.4 to 100 | < 3.16 | < 3.16 | 32.4 to 100 | – | – | – | –
2 | Clc1cc(N2CCCCC2)c2cn[nH]c2c1 [Compound 308] | > 100 | < 3.16 | 3.24 to 31.6 | 32.4 to 100 | – | – | – | –
3 | CN1C(=O)[C@@H]2CC[C@H]1CN(c1cc(Cl)cc3[nH]ncc13)C2 [Compound 435] | > 100 | < 3.16 | < 3.16 | 3.24 to 31.6 | – | – | – | –
4 | CS(=O)(=O)NCCN1C(=O)NC2(CCN(c3cc(Cl)cc4[nH]ncc34)CC2)C1=O [Compound 416] | 3.24 to 31.6 | < 3.16 | < 3.16 | < 3.16 | – | – | – | –
5 | O=C1N[C@H]2CC[C@@H]1CN(c1cc(Br)cc3[nH]ncc13)C2 [Compound 438] | > 100 | < 3.16 | < 3.16 | 3.24 to 31.6 | – | – | – | –
6 | CS(=O)(=O)NCCN1CCN(c2cc(Cl)cc3[nH]ncc23)CC1 [Compound 403] | > 100 | < 3.16 | < 3.16 | > 100 | – | – | – | –
7 | Cc1nc2c([nH]1)CN(c1cc(C(F)(F)F)cc3[nH]ncc13)CC2 [Compound 212] | 32.4 to 100 | < 3.16 | < 3.16 | > 100 | – | – | – | –
8 | CN1C(=O)[C@@H]2CC[C@H]1CN(c1cc(Br)cc3[nH]ncc13)C2 [Compound 455] | > 100 | < 3.16 | < 3.16 | 3.24 to 31.6 | – | – | – | –
9 | CNC(=O)CN1CCN(c2cc(Cl)cc3[nH]ncc23)CC1(C)C [Compound 413] | 3.24 to 31.6 | < 3.16 | < 3.16 | < 3.16 | – | – | – | –
10 | CC(=O)N1CCN(c2cc(Cl)cc3c(N)n[nH]c23)CC1 [Compound 322] | 3.24 to 31.6 | 3.24 to 31.6 | > 100 | > 100 | – | – | – | –
11 | CN(C)C(=O)C1CCCN(c2cc(Cl)cc3[nH]ncc23)C1 (centres unmarked) [Compound 209] | 32.4 to 100 | 32.4 to 100 | 32.4 to 100 | > 100 | – | – | – | –
12 | CC(=O)N1CCN(c2cc(Cl)cc3c(N)n[nH]c23)CC1(C)C [Compound 307] | 3.24 to 31.6 | > 100 | < 3.16 | < 3.16 | – | – | – | –
13 | CC(C)CN1C(=O)NC2(CCN(c3cc(Cl)cc4[nH]ncc34)CC2)C1=O [Compound 388] | < 3.16 | < 3.16 | < 3.16 | < 3.16 | – | – | – | –
14 | CS(=O)(=O)N1CCN(c2cccc3[nH]ncc23)CC1 [Compound 10] | 32.4 to 100 | 3.24 to 31.6 | 3.24 to 31.6 | > 100 | – | – | – | –
15 | CNC(=O)c1ccc(-c2cc(Cl)cc3[nH]ncc23)cc1 [Compound 257] | 3.24 to 31.6 | < 3.16 | < 3.16 | > 100 | – | – | – | –
16 | CS(=O)(=O)N1C2COCC1CN(c1cc(Cl)cc3[nH]ncc13)C2 [Compound 314] | 32.4 to 100 | < 3.16 | < 3.16 | 32.4 to 100 | – | – | – | –
17 | CC(=O)N1CCN(c2cc(Cl)cc3c(N)noc23)CC1(C)C [Compound 305] | 32.4 to 100 | 3.24 to 31.6 | 32.4 to 100 | > 100 | – | – | – | –
18 | Clc1cc(N2CCC(c3ncco3)CC2)c2cn[nH]c2c1 [Compound 429] | 3.24 to 31.6 | < 3.16 | < 3.16 | 3.24 to 31.6 | – | – | – | –
19 | Cc1nc2c(n1C)CN(c1cc(C(F)(F)F)cc3[nH]ncc13)CC2 [Compound 357] | < 3.16 | < 3.16 | 3.24 to 31.6 | > 100 | – | – | – | –
20 | C[C@H]1CN(S(C)(=O)=O)CCN1c1cc(C(F)(F)F)cc2[nH]ncc12 [Compound 214] | 3.24 to 31.6 | < 3.16 | < 3.16 | 32.4 to 100 | – | – | – | –
21 | CS(=O)(=O)N1CCC2(CCN(c3cc(Cl)cc4[nH]ncc34)CC2)CC1 [Compound 355] | 3.24 to 31.6 | < 3.16 | < 3.16 | 32.4 to 100 | – | – | – | –
22 | CNC(=O)c1ccc(C2CCN(c3cc(Cl)cc4[nH]ncc34)CC2)cc1 [Compound 440] | 3.24 to 31.6 | < 3.16 | < 3.16 | 3.24 to 31.6 | – | – | – | –
23 | O=C1CCC2(CCN1)CCN(c1cc(Cl)cc3[nH]ncc13)CC2 [Compound 394] | < 3.16 | < 3.16 | < 3.16 | 3.24 to 31.6 | – | – | – | –
24 | CNS(=O)(=O)c1ccc(-c2cc(Cl)cc3[nH]ncc23)cc1 [Compound 300] | 3.24 to 31.6 | < 3.16 | < 3.16 | 32.4 to 100 | – | – | – | –
25 | NS(=O)(=O)c1ccc(-c2cc(Cl)cc3[nH]ncc23)cc1 [Compound 269] | 3.24 to 31.6 | < 3.16 | < 3.16 | > 100 | – | – | – | –

Now from value to compound:

Row | IC50 (IDO [1]; [5]) [µM] | IC50 (TDO [2]; 500 μM L-tryptophan) [µM] | IC50 (TDO [3]; 17 minutes, room temperature) [µM] | IC50 (IDO [4]; 17 minutes, room temperature) [µM] | IC50 (IDO [1]; [6]) [µM] | IC50 (TDO [2]) [µM] | IC50 (TDO [3]) [µM] | IC50 (IDO [4]) [µM] | Structure (SMILES)
26 | 3.24 to 31.6 | < 3.16 | < 3.16 | < 3.16 | – | – | – | – | CC(=O)N(C)C1CCN(c2cc(Cl)cc3[nH]ncc23)CC1 [Compound 251]
27 | > 100 | < 3.16 | < 3.16 | 3.24 to 31.6 | – | – | – | – | CS(=O)(=O)N1CCN(C2CCN(c3cc(Cl)cc4[nH]ncc34)CC2)CC1 [Compound 453]
28 | < 3.16 | < 3.16 | < 3.16 | < 3.16 | 0.372 | 0.01 | 0.263 | 0.447 | CC1(C)CN(c2cc(Cl)cc3[nH]ncc23)CCN1S(C)(=O)=O [Compound 45, 6-chloro-4-(3,3-dimethyl-4-(methylsulfonyl)piperazin-1-yl)-1H-indazole]
29 | 3.24 to 31.6 | < 3.16 | < 3.16 | 3.24 to 31.6 | – | – | – | – | CS(=O)(=O)c1ccc(-c2cc(Cl)cc3[nH]ncc23)c(Cl)c1 [Compound 384]
30 | 3.24 to 31.6 | < 3.16 | < 3.16 | > 100 | – | – | – | – | Cc1nn(C)c2c1CN(c1cc(Cl)cc3[nH]ncc13)CC2 [Compound 376]
31 | > 100 | 3.24 to 31.6 | < 3.16 | > 100 | – | – | – | – | c1ccc(Nc2cccc3[nH]ncc23)cc1 [Compound 36]
32 | 3.24 to 31.6 | < 3.16 | < 3.16 | 3.24 to 31.6 | – | – | – | – | OC1(c2cc(Cl)cc3[nH]ncc23)CCC(F)(F)CC1 [Compound 428]
33 | 3.24 to 31.6 | < 3.16 | < 3.16 | 3.24 to 31.6 | – | – | – | – | CC(C)C(O)c1cc(Cl)cc2[nH]ncc12 (centres unmarked) [Compound 260]
34 | 3.24 to 31.6 | < 3.16 | < 3.16 | < 3.16 | – | – | – | – | CCS(=O)(=O)N1CCC(c2cc(Cl)cc3[nH]ncc23)CC1 [Compound 423]
35 | 32.4 to 100 | 3.24 to 31.6 | 3.24 to 31.6 | > 100 | – | – | – | – | O=S(=O)(C1CC1)N1CCN(c2cccc3[nH]ncc23)CC1 [Compound 19]
36 | 3.24 to 31.6 | < 3.16 | < 3.16 | > 100 | – | – | – | – | CNC(=O)C1(C)CCN(c2cc(Cl)cc3[nH]ncc23)CC1 [Compound 382]
37 | < 3.16 | < 3.16 | < 3.16 | < 3.16 | 0.145 | 0.0759 | 0.24 | 0.347 | CC1(C)CN(c2cc(Cl)cc3[nH]ncc23)CCC12NC(=O)NC2=O (centres unmarked) [Compound 424, 8-(6-chloro-1H-indazol-4-yl)-6,6-dimethyl-1,3,8-triazaspiro[4.5]decane-2,4-dione]
38 | > 100 | < 3.16 | < 3.16 | < 3.16 | – | – | – | – | CC(=O)NCCN1C(=O)NC2(CCN(c3cc(Cl)cc4[nH]ncc34)CC2)C1=O [Compound 412]
39 | < 3.16 | < 3.16 | < 3.16 | < 3.16 | – | – | – | – | O=C1NC2(CCN(c3cc(Cl)cc4[nH]ncc34)CC2)C(=O)N1Cc1ccccc1 [Compound 331]
